Measurements published in patent US20160185735A1, “FATTY ACID ANALOGS AND THEIR USE” (UNIVERSITY OF PITTSBURGH - OF THE COMMONWEALTH SYSTEM OF …, priority 2013, published 2016).
“And” between values parts separate entries of the source, which are not always exact repeats. Identical values can stand only once.

How the values were obtained:
[1] = system: β-oxidation in heart tissue; test: Folch-type extraction of 18F signal in heart tissue (oxidized vs unoxidized analog); assay type: in vivo, mice (ICR strain)
Text: FIGS. 9-10 are graphs showing the distribution of ^18F signal in heart tissue taken from fasted mice (ICR strain) administered the ^18F-labeled oleate analog (compound Va). Folch-type extraction was used to separate “Organic” (unoxidized analog) from “Pellets” and “Aqueous” (oxidized fatty acid metabolites).

PC3 cells = test: Post-fix click fluorescence microscopy of alkyne fatty acid uptake; assay type: cell-based; conditions: fixed, permeated, stained with sulfo-Cy3-azide
Protocol: Cells were treated with Alkyn-4-Thia-Palmitate, Alkyn-Palmitate, or control. The cells were then fixed, and incubated with sulfo-Cy3 azide to detect the trapped fatty acid analog.
This example illustrates in vitro analysis of fatty acid metabolism using the disclosed compounds. Cells were incubated with a fatty acid analog including a terminal alkyne group, fixed, and then treated with sulfo-Cy3-azide. The sulfo-Cy3-azide undergoes a click chemistry reaction (a 1,3-dipolar cycloaddition) with the terminal […] of the fatty acid homolog in the fixed cells to form a triazole ring linked to the fatty acid analog. The Cy3 moiety is then detected by fluorescence microscopy.
• 1. Place approximately 500 PC3 cells on coverslip in 24 well plates. • 2. Starve the cell with 250 μL of glucose free media overnight. • 3. Replace the media before the experiment with fresh 250 μL of glucose free media. • 4. Add alkyne fatty acid to the selected wells with coverslip and 1% BSA 10 μL in the control well and incubate at 37° C. for 1 or 2 h. • 5. After respective time wash the cells with 500 μL of 1% BSA for 3×5 min to remove extra fatty acid. • 6. Fix the cells with 300 μL of 4% paraformaldehyde (PFA) for 15 min • 7. Wash the cells once with PBS. • 8. […] Mount the coverslip and analyze by fluorescence microscopy. […]

[2] = system: Ehrlich ascites tumor cells; conditions: injected directly into the peritoneal fluid; cited from earlier work
PC3 xenografts = test: Small animal PET/CT imaging of tracer uptake in PC3 xenografts; assay type: in vivo, mice; conditions: 2 hours postinjection, listed as 18F-clicked-FTO
Protocol: Small animal PET/CT imaging was performed as previously described (Sprague et al., Clin. Cancer. Res. 2004, 10 (24), 8674-8682). Briefly, the ^18F-clicked palmitate or ^18F-clicked oleate analog (3.7 MBq) was injected via tail vein and the mouse was imaged at 2 hours postinjection. Static imaging was performed on an Inveon PET/CT scanner (Constantinescu et al., Phys. Med. Biol., 54, 2885-2899, 2009; Kemp et al., Phys. Med. Biol., 54, 2359-2376, 2009) with 10 min PET scanning followed by a 5 min CT. Inveon Research Workplace (IRW) from Siemens Healthcare Global was used for co-registration of PET/CT images and quantification of regions of interest (ROI). PET/CT images were reconstructed with maximum a posteriori (MAP), 3D ordered-subset expectation maximization (OSEM3D), 2D ordered-subset expectation maximization (OSEM2D), and filtered back projection (2DFBP). Standard uptake values (SUV) were generated by measuring ROI from PET/CT images and calculated with the formula: SUV=[nCi/ml]×[animal weight (g)]/injected dose [nCi]. FDG was injected intraperitoneally 36 hours pre-injection. 2-DG was injected intraperitoneally 4 hours pre-injection. […]

[3] = Tissue biodistribution of 18F-labeled tracers postinjection; assay type: in vivo, mice (ICR strain); conditions: for background muscle uptake: 0.5 and 2 hours postinjection
Protocol: FIGS. 11 and 12 are graphs showing biodistribution of ^18F-labeled FTO (“FTO,” left bar, Compound I) and the ^18F-labeled oleate analog (“clicked FTO,” right bar, compound Va) at 0.5 hours (FIG. 11) and 2 hours (FIG. 12) postinjection into mice (ICR strain). Similar to ^18F-FTO, the ^18F-labeled oleate analog has low background muscle uptake at 0.5 and 2 hours postinjection.
FIG. 14 is a table showing tissue biodistribution of ^18F-labeled-Oleate analog (compound Va) in mice (ICR strain).

[4] = system: β-oxidation (myocardial uptake); test: Blockage of β-oxidation / myocardial uptake with etomoxir; assay type: in vivo, mice
Text: FIG. 13 is a graph showing the blockage of β-oxidation of ^18F-labeled FTO (“FTO,” left bar, Compound I) and the ^18F-labeled oleate analog (“clicked FTO,” right bar, compound Va) with etomoxir.

PCa cells = conditions: cited from earlier work

## CCOC(=O)[C@@]1(CCCCCCOc2ccc(Cl)cc2)CO1 [Etomoxir, reference compound]
[1]; fasted mice given compound Va
  effect on extent of β-oxidation of the 18F-labeled oleate analog in heart tissue: reduced the extent of the β-oxidation

## alkyn-4-thia-palmitate
PC3 cells
  uptake by PCa cells: avidly take up

## ^14C-palmitate
[2]
  incorporation into Ehrlich ascites tumor cells / cellular lipids: 40-50%

## O=C(O)CCSCCCC/C=C\CCCCCCCc1cn(CC[18F])nn1 [compound Va, (Z)-3-((13-(1-(2-[^18F]fluoroethyl)-1H-1,2,3-triazol-4-yl)tridec-5-en-1-yl)thio)propanoic acid]
[1]; fasted mice, Organic (unoxidized) vs Pellets and Aqueous (oxidized metabolites)
  oxidation of the analog in heart tissue over time: more of the fatty acid analog was oxidized
PC3 xenografts; 2-DG and FDG treated mice, 3.7 MBq via tail vein
  uptake in the tumor (SUV): 0.21 and 0.22
PC3 xenografts; control group not treated with 2-DG and FDG
  uptake in the tumor (SUV): 0.15 and 0.18
[3]
  background muscle uptake: low
[3]; 0.5 hours postinjection
  in vivo defluorination relative to 18F-FTO: significantly less
[3]; 2 hours postinjection
  in vivo defluorination relative to FTO: significantly inhibited
[3]; mice, postinjection
  myocardial uptake relative to 18F-FTO: lower than the ^18F-FTO
[4]
  myocardial uptake, blockage with etomoxir: can be blocked with etomoxir

## [3H]C(CCCCCC)C([3H])CCCCCCCC(=O)O (centres unmarked) [^3H-palmitic acid]
PCa cells
  uptake in PCa cells compared with 2-DG: dominant uptake

## O=C(O)CCSCCCC/C=C\CCCCCCCC[18F] [FTO, [^18F]Fluoro-4-thia-oleic acid, reference compound]
[3]
  background muscle uptake: low

## O=C[C@H](O)[C@@H](O)[C@H](O)[C@H](O)CO [^14C-glucose]
[2]
  incorporation into Ehrlich ascites tumor cells / cellular lipids: 1%
